Values of other authors in US20120252862A1, “Dissolvable Film Strip Comprising Natural Components” (YEDITEPE UNIVERSITES, priority 2009, published 2012).

Conditions: single oral dose

O=C(O[C@@H]1Cc2c(O)cc(O)cc2O[C@@H]1c1cc(O)c(O)c(O)c1)c1cc(O)c(O)c(O)c1 [EGCG, epigallocatechin gallate]
Dose reported safe to be applied: up to 1600 mg
